Experimental data from patent US6903134B2, “Formulation comprising benzofuranone derivatives for protection against oxidative stress” (Merck Patent GmbH, priority 2000, dated 2005).

Columns and labels:
[1] = Stabilisation of dibenzoylmethane UV filters against decomposition by UV light; type: physicochemical; conditions: no method or figures given
Description: The invention furthermore relates to the stabilisation of UV filters. A known and effective class of light-protection filter substances is formed by dibenzoylmethane derivatives. However, it is disadvantageous that these substances are very easily decomposed by UV light, and their protective properties are thus lost. An example of a light-protection filter from this class of compounds which is available on the market is 4-(tert-butyl)-4′-methoxydibenzoylmethane, which has the following structure: [drawing 18]

[2] = 2,2-diphenyl-1-picrylhydrazyl (DPPH) assay, free-radical scavenging; type: biochemical; conditions: for free-radical scavenger / antioxidant properties compared with tocopherol (vitamin E): DPPH assay, same experimental set-up; for Absorbance in %, based on absorbance without THBC: 515 nm, 25° C., 1 cm, constant absorbance
Description: The performance of the DPPH assay is described in Brand-Williams, W., Cuvelier, M. E. & Berset, C. […] Gamez, E. J. et al. “Antioxidant flavonoid glycosides from Daphniphyllum calycinum”; J. Nat. Prod.
2,2-Diphenyl-1-picrylhydrazyl is a free radical which is stable in solution. The unpaired electron results in a strong absorption band at 515 nm, and the solution has a dark violet colour. In the presence of a free-radical scavenger, the electron is paired, the absorption disappears, and the decoloration proceeds stoichiometrically taking into account the electrons taken up. The absorbance is measured in a photometer. The anti-free-radical property of the substance to be tested is determined by measuring the concentration at which 50% of the 2,2-diphenyl-1-picrylhydrazyl employed has reacted with the free-radical scavenger. This concentration is expressed as EC50, a value which can be considered to be a property of the substance under the given measurement conditions. The substance investigated is compared with a standard (for example tocopherol).
In addition, the slope of the straight lines in the linear region is determined and the EC50 calculated.
A 70 μM stock solution of 2,2-diphenyl-1-picrylhydrazyl (DPPH) in ethanol was prepared. Such amounts of 4,6,3′,4′-tetrahydroxybenzylcoumaranone (THBC) were added to aliquots of this solution so as to give the THBC/DPPH ratios indicated in Table 1. The absorbance was in each case measured at 515 nm, 25° C. and 1 cm, with Table 1 in each case indicating the value measured at constant absorbance. The values are plotted graphically against one another in FIG. 1, with the molar ratio being plotted on the x axis and the measured absorbance as a relative proportion of the absorbance measured for the stock solution (100%) being plotted on the y axis.

stabilisation action for dibenzoylmethanes [1]: particularly high stabilisation action
SMILES: O=C1c2c(O)cc(O)cc2OC1Cc1ccc(O)c(O)c1 (centres unmarked) [THBC, 4,6,3′,4′-tetrahydroxybenzylcoumaranone]
free-radical scavenger / antioxidant properties compared with tocopherol (vitamin E) [2]: better free-radical scavenger properties than tocopherol
free-radical scavenger / antioxidant properties compared with tocopherol (vitamin E) ([2]; listed as 4,6,3′,4′-Tetrahydroxycoumaranone): more potent antioxidant than tocopherol
Absorbance in %, based on absorbance without THBC ([2]; THBC/DPPH 0.01): 97.66%
Absorbance in %, based on absorbance without THBC ([2]; THBC/DPPH 0.02): 94.04%
Absorbance in %, based on absorbance without THBC ([2]; THBC/DPPH 0.05): 87.02%
Absorbance in %, based on absorbance without THBC ([2]; THBC/DPPH 0.07): 79.15%
Absorbance in %, based on absorbance without THBC ([2]; THBC/DPPH 0.10): 72.13%
Absorbance in %, based on absorbance without THBC ([2]; THBC/DPPH 0.12): 62.72%
Absorbance in %, based on absorbance without THBC ([2]; THBC/DPPH 0.18): 44.18%
Absorbance in %, based on absorbance without THBC ([2]; THBC/DPPH 0.24): 26.08%
Absorbance in %, based on absorbance without THBC ([2]; THBC/DPPH 0.30): 16.16%
Absorbance in %, based on absorbance without THBC ([2]; THBC/DPPH 0.37): 15.73%
Absorbance in %, based on absorbance without THBC ([2]; THBC/DPPH 0.43): 15.27%
Absorbance in %, based on absorbance without THBC ([2]; THBC/DPPH 0.49): 15.27%
Absorbance in %, based on absorbance without THBC ([2]; THBC/DPPH 0.55): 15.27%
Absorbance in %, based on absorbance without THBC ([2]; THBC/DPPH 0.61): 15.05%
Absorbance in %, based on absorbance without THBC ([2]; THBC/DPPH 0.73): 14.19%
Absorbance in %, based on absorbance without THBC ([2]; THBC/DPPH 0.97): 14.56%
Absorbance in %, based on absorbance without THBC ([2]; THBC/DPPH 1.21): 14.56%
